Assay results from patent publication US11185074B2, “Microbiocidal quinoline (thio)carboxamide derivatives” (SYNGENTA PARTICIPATIONS AG, priority 2017, dated 2021).

How the values were obtained:
[1] = tested on: Botryotinia fuckeliana (Botrytis cinerea); assay: Botryotinia fuckeliana (Botrytis cinerea) / liquid culture (gray mould); type: cell-based; settings: 72 h, 20 ppm, liquid culture, inhibition of growth photometrically 3-4 days after application, compared to untreated control, read-out: control of Botryotinia fuckeliana
[2] = tested on: Glomerella lagenarium (Colletotrichum lagenarium); assay: Glomerella lagenarium (Colletotrichum lagenarium) / liquid culture (anthracnose); type: cell-based; settings: Colletotrichum orbiculare; 20 ppm; liquid culture, inhibition of growth photometrically 3-4 days after application; compared to untreated control; read-out: control of Glomerella lagenarium
[3] = tested on: Magnaporthe grisea (Pyricularia oryzae); assay: microbe, parasite or virus in culture; type: cell-based; settings: 72 h, read-out: control of Magnaporthe grisea
Fusarium culmorum [4] = assay: whole plant or invertebrate; type: in vivo, Fusarium culmorum on wheat spikelets cv. Monsun; settings: in Triticum aestivum, read-out: control of Fusarium culmorum
[5] = tested on: Gibberella zeae (Fusarium graminearum); assay: whole plant or invertebrate; type: in vivo; settings: in Triticum aestivum, 144 h, read-out: control of Gibberella zeae
[6] = tested on: Monographella nivalis (Microdochium nivale); assay: Monographella nivalis (Microdochium nivale) / liquid culture (foot rot cereals); type: cell-based; settings: 96 h, inhibition of growth photometrically 4-5 days after application, compared to untreated control
Fusarium culmorum [7] = assay: microbe, parasite or virus in culture; type: cell-based; settings: read-out: control of Fusarium culmorum
Sclerotinia sclerotiorum = Sclerotinia sclerotiorum / liquid culture (cottony rot); settings: 72 h, read-out: control of Sclerotinia sclerotiorum
Procedure: Sclerotinia sclerotiorum/Liquid Culture (Cottony Rot)
Mycelia fragments of a newly grown liquid culture of the fungus are directly mixed into nutrient broth (Vogels broth). After placing a (DMSO) solution of test compound into a microtiter plate (96-well format) the nutrient broth containing the fungal material is added. The test plates are incubated at 24° C. and the inhibition of growth is determined photometrically 3-4 days after application.

SMILES | inhibition of growth at 20 ppm [1] [%] | inhibition of growth at 20 ppm [2] [%] | inhibition of growth at 20 ppm [3] [%] | pest or weed control at 200 ppm (Fusarium culmorum [4]) [%] | pest or weed control at 200 ppm [5] [%] | inhibition of growth at 20 ppm [6] [%] | inhibition of growth at 20 ppm (Fusarium culmorum [7]) [%] | melting point [°C] | inhibition of growth at 20 ppm (Sclerotinia sclerotiorum) [%]
C/C=C(\C)CC(C)(CC(C)C)NC(=O)c1cnc2c(F)cccc2c1 (centres unmarked) [E-5] | ≥ 80 | ≥ 80 | ≥ 80 | ≥ 80 | ≥ 80 | ≥ 80 | ≥ 80 | – | –
CC(C)(Cc1ccccc1)C(C)(C)NC(=O)c1cnc2c(F)cccc2c1 [E-21] | ≥ 80 | – | ≥ 80 | ≥ 80 | ≥ 80 | ≥ 80 | ≥ 80 | 131 to 132 | –
CC(C)(CCCc1ccccc1)NC(=O)c1cnc2c(F)cccc2c1 [E-23] | ≥ 80 | ≥ 80 | – | ≥ 80 | ≥ 80 | ≥ 80 | ≥ 80 | – | –
CCC(CC)CC(C)(CC(F)(F)F)NC(=O)c1cnc2c(F)cccc2c1 (centres unmarked) [E-45] | ≥ 80 | ≥ 80 | ≥ 80 | – | ≥ 80 | ≥ 80 | ≥ 80 | – | –
CCCC(C)CC(C)(CC(F)(F)F)NC(=O)c1cnc2ccccc2c1 (centres unmarked) [E-46] | ≥ 80 | ≥ 80 | – | ≥ 80 | ≥ 80 | – | ≥ 80 | – | –
C=C(C)CC(C)(CC1CCCCC1)NC(=O)c1cnc2c(F)c(F)ccc2c1 (centres unmarked) [E-48] | ≥ 80 | ≥ 80 | ≥ 80 | ≥ 80 | – | ≥ 80 | ≥ 80 | 115 to 117 | ≥ 80
CC(CC1CC=CCC1)(CC(F)(F)F)NC(=O)c1cnc2c(F)cccc2c1 (centres unmarked) [E-54] | ≥ 80 | ≥ 80 | ≥ 80 | ≥ 80 | – | ≥ 80 | ≥ 80 | 115 to 118 | ≥ 80
CC(CC1CCCC1)(CC(F)(F)F)NC(=O)c1cnc2ccccc2c1 (centres unmarked) [E-63] | ≥ 80 | ≥ 80 | ≥ 80 | ≥ 80 | – | ≥ 80 | ≥ 80 | 94 to 103 | ≥ 80
Cc1cccc2cc(C(=O)NC(C)(CC3CCCC3)CC(F)(F)F)cnc12 (centres unmarked) [E-64] | ≥ 80 | ≥ 80 | ≥ 80 | ≥ 80 | – | ≥ 80 | ≥ 80 | 108 to 116 | ≥ 80
CC1(C[C@](C)(CC(F)(F)F)NC(=O)c2cnc3c(F)cccc3c2)CC1 [F-1, 8-fluoro-N-[(1R)-3,3,3-trifluoro-1-methyl-1-[(1-methylcyclo-propyl)meth-yl]propyl] quinoline-3-carboxamide] | ≥ 80 | ≥ 80 | ≥ 80 | ≥ 80 | ≥ 80 | ≥ 80 | ≥ 80 | – | –
C[C@](CC1CCCC1)(CC(F)(F)F)NC(=O)c1cnc2c(F)cccc2c1 [F-5, N-[(1S)-1-(cyclopentylmeth-yl)-3,3,3-trifluoro-1-methyl-propyl]-8-fluoro-quinoline-3-carboxamide] | ≥ 80 | ≥ 80 | ≥ 80 | ≥ 80 | – | – | ≥ 80 | 102 to 105 | ≥ 80
